For one assay, the system named is lymphosarcoma cells. To be noted: BALB/c mice; cited from earlier work.
Assay [1] deals with human non-small cell lung cancer (NSCLC) cells. The following applies: 1 or 10 mg per day subcutaneous; nude mice inoculated with human NSCLC cells; cited from earlier work.
Assay [2] concerns methylcholanthrene-induced fibrosarcoma. The following applies: mice with methylcholanthrene-induced fibrosarcoma; cited from earlier work.
Assay [3] concerns Stage IV Melanoma Characterized by Distant Unresectable Metastases. The assay is described as follows: Phase II clinical trial, tumor response (RECIST) in stage IV melanoma patients. The assay is classed as in vivo, human. To be noted: preliminary analysis on 142 patients; higher doses of Tα1.
Description: Trial Design phase II, randomized, stratified, open-study testing different doses of Tα1 in association with DTIC and IFNα, as first line therapy for stage IV melanoma patients characterized by distant unresectable metastases (AJCC; Journal of Clinical Oncology 2001, 19: 3635-3648) without brain metastases. The primary study end-point was tumor response, and the following combination composition were used: • DTIC (800 mg/m^2)+IFNα (3 MIU)+Tα1 (1.6 mg) (97 pts); • DTIC (800 mg/m^2)+IFNα (3 MIU)+Tα1 (3.2 mg) (97 pts); • DTIC (800 mg/m^2)+Tα1 (3.2 mg) (98 pts); • DTIC (800 mg/m^2)+IFNα (3 MIU) (94 pts);
The five groups were analyzed independently one another within the so-called “pick the winner” strategy.
Methods: Recycling every 28 days, patients were administered DTIC (800 mg/m^2) i.v. at day 1, Tα1 (1.6, 3.2 or 6.4 mg) s.c. at days 8-11 and 15-18, and IFNα (3 MIU) s.c. at day 11 and 18. Clinical response was evaluated every two cycles according to RECIST criteria (New Guidelines to Evaluate the Response to Treatment in Solid Tumors; Journal of the National Cancer Institute, 2000. 92: 205-216) utilizing a central reader.
The randomized patients were stratified according to the disease site: M1a, M1b or M1c level.
1) Patients with cutaneous, subcutaneous and/or limphnodal metastases with normal serum LDH value (from 96 to 460 U/L) were classified as M1a. […]

The values that follow come from patent publication US8029799B2, “Use of thymosin alpha 1 for preparing a medicament for the treatment of stage IV malignant melanoma” (SciClone Pharmaceuticals, Inc., priority 2006, dated 2011).

Ends that are not written are not given here.

For “thymosin alpha 1 (SDAAVDTSSEITTKDLKEKKEVVEEAEN; ends and bridges not checked; UniProt P06454 2-29, looked up) [a compound well known in the medical field]”, in the assay with lymphosarcoma cells, the “liver and lung metastases of lymphosarcoma cells” value is reported as “significantly reduced”; the local sarcoma growth entry is listed as “significantly reduced”. In addition, in assay [1], the tumor volume entry is “significantly decreased”. Besides, the pulmonary metastases result in assay [2] is given as “reduced”. Also, in assay [3], the dose-response effect result is given as “clear dose-response effect”.
